Laboratory results from BindingDB's records for doi:10.1016/j.bmc.2019.01.024 (2019).

Columns and labels:
[1] = Inhibition of mouse GAT3 expressed in HEK293 cells assessed as reduction in [3H]GABA uptake preincubated for 25 mins followed by [3H]GABA addition and measured after 4 mins by microbeta liquid scintillation counting method
[2] = Inhibition of mouse GAT2 expressed in HEK293 cells assessed as reduction in [3H]GABA uptake preincubated for 25 mins followed by [3H]GABA addition and measured after 10 mins by microbeta liquid scintillation counting method
[3] = target: T1, Sodium- and chloride-dependent GABA transporter 2 (Mus musculus, UniProt P31649); assay: Inhibition of mouse GAT2 expressed in HEK293 cells assessed as reduction in [3H]GABA uptake preincubated for 25 mins followed by [3H]GABA addition and measured after 10 mins by microbeta liquid scintillation counting method
T1 sequence (P31649 whole entry): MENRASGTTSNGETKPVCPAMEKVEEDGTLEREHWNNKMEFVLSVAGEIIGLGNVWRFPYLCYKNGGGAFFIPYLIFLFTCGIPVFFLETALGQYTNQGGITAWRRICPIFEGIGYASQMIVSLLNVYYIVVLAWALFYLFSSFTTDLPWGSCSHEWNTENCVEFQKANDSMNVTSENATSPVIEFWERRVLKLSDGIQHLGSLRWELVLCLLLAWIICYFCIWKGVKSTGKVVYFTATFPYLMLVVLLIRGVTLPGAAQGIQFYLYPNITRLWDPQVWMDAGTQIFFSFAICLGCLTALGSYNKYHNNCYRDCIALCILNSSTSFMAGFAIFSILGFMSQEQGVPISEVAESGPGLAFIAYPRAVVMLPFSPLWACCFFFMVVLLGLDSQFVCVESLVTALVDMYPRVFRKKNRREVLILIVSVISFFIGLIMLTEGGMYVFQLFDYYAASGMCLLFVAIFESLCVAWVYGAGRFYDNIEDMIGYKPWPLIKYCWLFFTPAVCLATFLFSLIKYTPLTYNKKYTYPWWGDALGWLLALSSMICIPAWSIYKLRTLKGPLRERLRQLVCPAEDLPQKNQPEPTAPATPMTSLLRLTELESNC

## COc1ccc(C(/C=C\CN2CCCC(C(=O)O)C2)(c2ccc(OC)cc2)c2ccc3c(c2)OCO3)cc1 (stereo unspecified)
[1]
  IC50: 45.7 µM
[2]
  IC50: 61.7 µM

## COc1ccc(C(/C=C\CN2CCCC(C(=O)O)C2)(Cc2ccccc2)c2ccc(OC)cc2)cc1 (stereo unspecified)
[3]
  IC50: 30.2 µM

## COc1ccc(C(C/C=C\CN2CCCC(C(=O)O)C2)(c2ccc(OC)cc2)c2ccc(OC)cc2)cc1 (stereo unspecified)
[1]
  IC50: 85.1 µM

## O=C(O)C1CCCN(CC/C=C\C(c2ccccc2)(c2ccccc2)c2ccccc2)C1 (stereo unspecified)
[2]
  IC50: 55 µM

## COc1ccc(C(/C=C\CN2CCCC(C(=O)O)C2)(c2ccc(OC)cc2)c2ccsc2)cc1 (stereo unspecified)
[2]
  IC50: 89.1 µM
